# Where two headings read alike, the source gives them in different places. Peptide text beside a SMILES is read from it.
# What was measured:
# [1] = test system: A. baum. clin. isolate; format: cell-based, Acinetobacter baumannii
# Text: (§1) The American Type Culture Collection (ATCC, Rockville, MD, USA) strains and Escherichia coli MG1655 were used as standard bacterial strains. Gram-negative ATCC strains consisted of Escherichia coli (ATCC 25922), Pseudomonas aeruginosa (ATCC 27853), Acinetobacter baumannii (ATCC 19606), and Klebsiella pneumoniae (ATCC 13883). The only Gram-positive standard strain chosen for testing was Staphylococcus aureus (ATCC 29213). Clinical isolates with confirmed multidrug-resistance phenotype were obtained from different wards of the University Hospital Center, Split, Croatia. We described their origin, antibiograms, and resistance phenotype previously. In the same paper, we described the procedure for antimicrobial susceptibility testing on planktonic cells, using the microdilution method in 96-well microtiter plates.
# (§2) Briefly, cells were grown on agar plates and a single colony was sampled to generate a liquid culture (LC) grown overnight at 37 °C. The culture was sampled, resuspended in fresh medium, and allowed to grow at 37 °C, until reaching the mid-exponential phase. Lysogeny broth (LB) was used in the case of the E. coli MG1655 cells. Mueller Hinton (MH) medium was used for all other bacterial strains. Serial 2-fold dilutions of the peptide (64 μM to 0.0625 μM) were prepared from peptide stock solution in PBS, and added to a final load of 5 × 10^5 CFU/mL in 100 μL total volume of medium per well in a 96-well plate (Brand 781660). Bacterial cultures were incubated with peptides for 18 h to 24 h at 37 °C. The minimum inhibitory concentration (MIC) was defined as the lowest concentration of the peptide, at which no visible bacterial growth was observed. The MIC for each of the tested peptides was determined in at least three individual assays under the same laboratory conditions. […] At the end of the incubation period for MIC or MBC, the determination of the OD600 was analyzed.
# [2] = test system: human erythrocytes; test: Hemolysis of human erythrocytes; format: cell-based; conditions: for HC10: concentration causing 10% hemolysis, 0.2% Triton = 100%; for HC20: concentration causing 20% hemolysis
# Protocol: Fresh blood was obtained from a healthy donor. Blood was stored in a tube containing EDTA at 4 °C and used within 24 h. Before use, 1 mL of blood was centrifuged (400× g, 10 min), and the supernatant was discarded. Moreover, 500 μL cold PBS with EDTA (1 mM) was added, mixed and centrifuged. The supernatant was discarded. Furthermore, 500 μL of cold PBS with EDTA (1 mM) was added, from which a dilution of 1% blood was made. Peptides were prepared in PBS at a 2 × concentration in 100 µL. […] The suspension was incubated at 37 °C for 1 h and centrifuged at 10,000× g for 5 min. […] After centrifugation, the supernatant was added to a 96-well microtiter plate (150–180 μL), and the absorbance was measured at 450 nm, using EnSight Multimode Plate Reader (PerkinElmer, Inc.). Each measurement was done in triplicate. […] We opted to also include the extrapolated HC50 in our results, to permit comparisons with older toxicity results. However, the HC20 measurements were used for ranking the peptides according to their selectivity and overall performance (Figure 1 and Figure 2 and Table 2).
# [3] = test system: S. aureus clin. isolate; format: cell-based, Staphylococcus aureus; conditions: clin. isolate
# Text: as §1, §2
# [4] = test system: K. pneum. clin. isolate; format: cell-based, Klebsiella pneumoniae
# Text: as §1, §2
# [5] = test system: E. coli clin. isolate; format: cell-based, Escherichia coli; conditions: clin. isolate
# Text: as §1, §2
# [6] = test system: P. aerug. clin. isolate; format: cell-based, Pseudomonas aeruginosa
# Text: as §1, §2
# [7] = test system: Escherichia coli MG1655; format: cell-based
# Text: as §1, §2
# [8] = test system: Acinetobacter baumannii (ATCC 19606); format: cell-based; conditions: ATCC 19606
# Text: as §1, §2
# [9] = test system: Escherichia coli (ATCC 25922); format: cell-based; conditions: ATCC 25922
# Text: as §1, §2
# [10] = test system: Klebsiella pneumoniae (ATCC 13883); format: cell-based; conditions: ATCC 13883
# Text: as §1, §2
# [11] = test system: Staphylococcus aureus (ATCC 29213); format: cell-based
# Text: as §1, §2
# [12] = test system: Pseudomonas aeruginosa (ATCC 27853); format: cell-based; conditions: ATCC 27853
# Text: as §1, §2
# [13] = test system: PC-3 prostate cancer cell line; format: cell-based, human
# Protocol: (§3) Prostate cancer cells were donated by the University of Split, School of Medicine. Cells were cultured in RMPI-1640 medium, supplemented with 10% FBS, 1% Penicillin-Streptomycin, and 1% L-Glutamine. Human dermal fibroblasts were purchased from Biopredic (France) and cultured in DMEM medium, supplemented with 10% FBS and 1% Penicillin-Streptomycin. All cell lines were maintained in a humidified incubator with 5% CO2 at 37 °C. Cells were detached using the trypsin-EDTA solution and sub-cultured (7000 cells/well) in a 96-well plate overnight. Peptide stock solutions were prepared in PBS, and cancer cells were treated with 2-fold serial dilutions for 24 h at 37 °C, with 5% CO2. The toxicity of 6 selected peptides was assessed by a standard MTT assay. Treated cells were incubated with MTT working solution (0.5 mg/mL Thiazolyl Blue Tetrazolium Bromide) for 4 h at 37 °C with 5% CO2. Precipitated formazan was dissolved in 200 µL DMSO and absorbance was measured at 595 nm with EnSight Multimode Plate Reader (PerkinElmer, Inc.)
# [14] = test system: human primary dermal fibroblasts; format: cell-based
# Protocol: as §3
# [15] = 0.5% RBC in PBS, 1 h, 37 °C, absorbance 450 nm, triplicate
smiles,measurement,setting,value
CC[C@H](C)[C@H](NC(=O)CN)C(=O)N[C@@H](CCCCN)C(=O)N[C@@H](CCCCN)C(=O)N[C@@H](C)C(=O)N[C@H](C(=O)NCC(=O)N[C@@H](CCCCN)C(=O)N[C@@H](C)C(=O)N[C@@H](CC(C)C)C(=O)N[C@@H](CCCCN)C(=O)NCC(=O)N[C@@H](CC(C)C)C(=O)N[C@@H](CCCCN)C(=O)NCC(=O)N[C@@H](CC(C)C)C(=O)N[C@@H](CC(C)C)C(=O)N[C@@H](CCCCN)C(=O)N[C@@H](C)C(=O)N[C@@H](CC(C)C)C(=O)NCC(=O)N[C@@H](CCC(=O)O)C(=O)N[C@@H](CO)C(N)=O)C(C)C [A1A] (H-GIKKAVGKALKGLKGLLKALGES-NH2),MIC (A. baum. clin. isolate),[1],4 to 8 µM
same,HC10,[2]; [15],25 µM
same,HC20,[2]; [15],80 µM
same,HC50 * (extrapolated),"[2]; extrapolated, all concentrations tested lysed less than 50% of cells",125 * µM
same,MIC (S. aureus clin. isolate),[3],4 µM
same,MIC (K. pneum. clin. isolate),[4],8 µM
same,MIC (E. coli clin. isolate),[5],32 µM
same,MIC (P. aerug. clin. isolate),[6],>64 µM
same,MIC (E. coli MG1655),[7]; MG1655,2 µM
same,MIC (A. baum. ATCC 19606),[8],2 µM
same,MIC (E. coli ATCC 25922),[9],1 µM
same,MIC (K. pneum. ATCC 13883),[10],4 µM
same,MIC (S. aureus ATCC 29213),[11]; ATCC 29213,1 µM
same,PEa(20) = SI/MIC(aureus),"[11]; ATCC 29213, 18 h",80 µM⁻¹
same,MIC (P. aerug. ATCC 27853),[12],64 µM
same,(TI/ IC50C) vs. MP1,[13]; 24 h,5
same,IC50,[13]; 24 h,12 µM
same,TI (HC20/IC20C),[13]; 24 h,27
same,TI (IC50F/IC50C),[13]; 24 h,2.5
same,TI/ IC50C,[13]; 24 h,0.21
same,IC50,[14]; 24 h,30 µM
"CC[C@H](C)[C@H](N)C(=O)N[C@@H](CC(=O)O)C(=O)N[C@@H](Cc1c[nH]c2ccccc12)C(=O)N[C@@H](CCCCN)C(=O)N[C@@H](CCCCN)C(=O)N[C@@H](CC(C)C)C(=O)N[C@@H](CC(C)C)C(=O)N[C@@H](CC(=O)O)C(=O)N[C@@H](C)C(=O)N[C@@H](C)C(=O)N[C@@H](CCCCN)C(=O)N[C@@H](CCC(N)=O)C(=O)N[C@H](C(=O)N[C@@H](CC(C)C)C(N)=O)[C@@H](C)CC [MP1, reference compound] (H-IDWKKLLDAAKQIL-NH2)",HC10,[2]; [15],20 µM
same,HC20,[2]; [15],37 µM
same,HC50,"[2]; concentration causing 50% hemolysis, 0.5% RBC in PBS, 1 h, 37 °C, absorbance 450 nm, triplicate",170 µM
same,MIC (E. coli MG1655),"[7]; broth microdilution, LB medium, 5 × 10^5 CFU/mL, 18-24 h, 37 °C, at least three assays",>32 µM
same,IC50,"[13]; MTT assay, 7000 cells/well, 24 h treatment, 37 °C, 5% CO2, absorbance 595 nm, read-out: IC50C (PC-3)",60 µM
same,TI (HC20/IC20C),[13]; human erythrocytes vs PC-3,1
same,TI/ IC50C,"[13]; performance, product of TI and anticancer activity (1/IC50C)",0.04
same,(TI/ IC50C) vs. MP1,[13]; relative performance with respect to MP1 control peptide,1.0
same,TI (IC50F/IC50C),"[13]; therapeutic index, fibroblasts vs PC-3",2.5
same,IC50,"[14]; MTT assay, 7000 cells/well, 24 h treatment, 37 °C, 5% CO2, absorbance 595 nm, read-out: IC50F (Fibroblasts)",150 µM

# Source: article PMC7436000, “The Spectrum of Design Solutions for Improving the Activity-Selectivity Product of Peptide Antibiotics against Multidrug-Resistant Bacteria and Prostate Cancer PC-3 Cells” (Molecules, 2020)
